From patent publication US20060264419A1 (priority 2003, published 2006) come the findings set out here.

SMILES strings stand for the structures.

Sequence of 5-HT2A receptors (P14842 whole entry): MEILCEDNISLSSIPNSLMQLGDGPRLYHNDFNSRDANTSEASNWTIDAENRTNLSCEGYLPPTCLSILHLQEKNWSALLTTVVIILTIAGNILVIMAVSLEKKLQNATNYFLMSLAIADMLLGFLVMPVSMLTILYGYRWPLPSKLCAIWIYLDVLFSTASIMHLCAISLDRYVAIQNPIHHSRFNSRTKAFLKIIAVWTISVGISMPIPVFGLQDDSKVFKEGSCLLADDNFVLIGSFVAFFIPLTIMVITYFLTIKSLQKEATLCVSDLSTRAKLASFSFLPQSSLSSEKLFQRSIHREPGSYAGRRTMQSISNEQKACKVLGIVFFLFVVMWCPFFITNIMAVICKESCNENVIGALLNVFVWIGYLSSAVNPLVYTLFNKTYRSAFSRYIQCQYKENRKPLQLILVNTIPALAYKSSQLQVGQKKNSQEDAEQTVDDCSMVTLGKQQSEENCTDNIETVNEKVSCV

One assay has as its target 5-HT2A receptors (Rattus norvegicus, UniProt P14842). Description: in-vitro affinity to 5-HT2A receptors, displacement of [3H]ketanserine (Example A1). The class given is binding. The conditions noted are these: read-out: HT2A IC50. The text has this:
The 5-HT2A receptors are exposed both to [^3H]ketanserine (a substance which is known for its affinity to the receptor) and also to the test compound. The decrease in the affinity of [^3H]ketanserine to the receptor is an indication of the affinity of the test substance to the 5-HT2A receptor.
For `Fc1ccccc1-c1c(CN2CC3CC2CO3)cnn1-c1ccc(-c2ccccc2)cc1` (stereo not drawn) [Example 996, 5-[1-Biphenyl-4-yl-5-(2-fluorophenyl)-1H-pyrazol-4-ylmethyl]-2-oxa-5-azabicyclo-[2.2.1]heptane], the IC50 came to 160 nM. Same read-out and setting: in the case of `OCCN1CCN(Cc2cnn(-c3ccc(-c4ccccc4)cc3)c2-c2ccccc2F)CC1` [Example 1032, 2-{4-[1-Biphenyl-4-yl-5-(2-fluoro-phenyl)-1H-pyrazol-4-ylmethyl]piperazin-1-yl}ethanol] it was 280 nM; in that of `CN(C)C(=O)CNCc1cnn(-c2ccc(-c3ccccc3)cc2)c1-c1ccccc1F` [Example 1010, 2-{[1-Biphenyl-4-yl-5-(2-fluorophenyl)-1H-pyrazol-4-ylmethyl]amino}-N,N-dimethyl-acetamide], 200 nM; in that of `OCC(Cc1cnc[nH]1)NCc1cnn(-c2ccc(-c3ccccc3)cc2)c1-c1ccccc1F` (stereo not drawn) [Example 1045, 2-{[1-Biphenyl-4-yl-5-(2-fluoro-phenyl)-1H-pyrazol-4-ylmethyl]amino}-3-(3H-imidazol-4-yl)propan-1-ol], 370 nM.

The assay is the same for the next values; noted with them: target not given; description names affinity to 5-HT2A receptors; read-out: IC50.
As to `c1ccc(-c2ccc(-n3ncc(CNCc4ccncc4)c3-c3ccccc3)cc2)cc1` [(170), (1-Biphenyl-4-yl-5-phenyl-1H-pyrazol-4-ylmethyl)pyridin-4-ylmethylamine], the IC50 amounted to 31 nM.

For the compound `Fc1ccccc1-c1c(CCN2CCOCC2)cnn1-c1ccc(-c2ccccc2)cc1` [(42), 4-{2-[1-Biphenyl-4-yl-5-(2-fluorophenyl)-1H-pyrazol-4-yl]ethyl}morpholine], the IC50 is 12 nM.

With `OCCN1CCN(Cc2cnn(-c3ccc(-c4ccccc4)cc3)c2-c2ccccc2F)CC1` [(79), 2-{4-[1-Biphenyl-4-yl-5-(2-fluorophenyl)-1H-pyrazol-4-ylmethyl]piperazin-1-yl}ethanol], the IC50 is 280 nM. Still for that read-out and setting: in the case of `NC(=O)C1CCCN1Cc1cnn(-c2ccc(-c3ccccc3F)nc2)c1-c1ccccc1F` (stereo not drawn) [(145), 1-{5-(2-Fluorophenyl)-1-[6-(2-fluorophenyl)pyridin-3-yl]-1H-pyrazol-4-ylmethyl}pyrrolidine-2-carboxamide] it was 220 nM; in that of `OCc1cnn(-c2ccc(-c3ccc(F)cc3)nc2)c1-c1ccccc1F` [(119), {5-(2-Fluorophenyl)-1-[6-(4-fluorophenyl)pyridin-3-yl]-1H-pyrazol-4-yl}methanol], 300 nM; in that of `Fc1ccccc1-c1c(C=CCN2CCOCC2)cnn1-c1ccc(-c2ccccc2)cc1` [(46), 4-{3-[1-Biphenyl-4-yl-5-(2-fluorophenyl)-1H-pyrazol-4-yl]allyl}morpholine], 17 nM. The same measure, in the same setting: in the case of `CN1CCN(Cc2cnn(-c3ccc(-c4ccccc4)cc3)c2-c2ccccc2F)CC1` [(41), 1-[1-Biphenyl-4-yl-5-(2-fluorophenyl)-1H-pyrazol-4-ylmethyl]-4-methylpiperazine] it was 24 nM; in that of `CN1CCN(Cc2cnn(-c3ccc(-n4cccc4)cc3)c2-c2ccccc2F)CC1` [(106), 1-[5-(2-Fluorophenyl)-1-(4-pyrrol-1-ylphenyl)-1H-pyrazol-4-ylmethyl]-4-methylpiperazine], 17 nM. In the case of `Fc1ccc(-c2ccc(-n3ncc(CNc4cccnc4)c3-c3ccccc3F)cn2)cc1` [(144), {5-(2-Fluorophenyl)-1-[6-(4-fluorophenyl)pyridin-3-yl]-1H-pyrazol-4-ylmethyl}pyridin-3-ylamine], the IC50 turned out to be 890 nM.

Regarding `CCN(CC)Cc1cnn(-c2ccc(-c3ccccc3)cc2)c1-c1ccccc1F` [(33), [1-Biphenyl-4-yl-5-(2-fluorophenyl)-1H-pyrazol-4-ylmethyl]-diethylamine], the IC50 worked out at 55 nM. Same read-out and setting: in the case of `Nc1ccc(NCc2cnn(-c3ccc(-c4ccc(F)cc4)nc3)c2-c2ccccc2F)cn1` [(194), N^5-{5-(2-Fluorophenyl)-1-[6-(4-fluorophenyl)pyridin-3-yl]-1H-pyrazol-4-ylmethyl}pyridine-2,5-diamine] it was 590 nM.
